“And” between values parts separate entries of the source, which are not always exact repeats. Equal values may be shown once. Read-outs that look alike come from different tables or passages of the source.
Legend:
[1] = tested on: MES-SA mCherry; assay: fluorescent triple coculture cytotoxicity assay; type: cell-based, human; conditions: 384-well plate
Description: (§1) Cytotoxicity of the compounds were further tested also in an in vitro MDR model system, consisting of an MES-SA uterine sarcoma cell line, and its P-gp (ABCB1) overexpressing variants MES-SA/B1, that was genetically engineered to express P-gp, and MES-SA/Dx5, which acquired a P-gp-mediated MDR phenotype due to selection in doxorubicin. , The expression of different fluorescent proteins in each line (mCherry, mOrange, or eGFP) allowed coculturing of these three cell lines, providing more relevant data compared to monocultures, as the interaction between parental and resistant phenotypes is reflected in cytotoxicity.
(§2) Cytotoxicity of nanoformulated [RhCp*(BP)-Cl]-Cl with cross-linked HSA and HTP carriers was tested against the previously introduced triple coculture of fluorescent MES-SA cells with a slight difference. Namely, the media containing the dissolved products were removed from the wells, and fresh media was added prior to the measurement as the presence of cross-linked HSA and HTP formulations interfered with the fluorescence of the cells.
(§3) MDA-MB-231 breast adenocarcinoma and MCF-7 and T-47D invasive breast carcinomas were purchased from the Developmental Therapeutic Program of the National Cancer Institute (NIH, USA), and they were cultured in RPMI medium (Thermo Fisher). MES–SA and MES–SA/Dx5 uterine sarcoma cell lines were purchased from American Type Culture Collection and were kept in DMEM (Thermo Fisher). MES–SA/B1 was created by the transfection of the human MDR1 gene in MES–SA, and MES–SA mCherry, MES–SA/B1 mOrange, and MES–SA/Dx5 eGFP were engineered to stably express the respective fluorescent proteins, as described previously. Culture media were supplemented with 10% fetal bovine serum, 2 mM L-glutamine, 100 units/mL penicillin, and 100 μg/mL streptomycin (Thermo Fisher). Cells were kept at 37 °C under 5% CO2 and were negative for mycoplasma infection.
(§4) Cytotoxicity of the nonfluorescent cancer cells (MDA-MB-231, MCF-7, T-47D) were assessed with PrestoBlue cell viability reagent (Thermo Fisher). Briefly, 2500 cells/well were seeded on 384-well plates, and then the next day drugs were added. After 72 h incubation, PrestoBlue was added in a 10% final concentration, and after an hour of additional incubation, plates were measured with a PerkinElmer EnSpire plate reader at 555 nm/585 nm excitation/emission wavelengths. […] Drugs were added the following day, and the intensity of the fluorescent proteins were measured after 144 h incubation at the respective fluorescent channels (excitation/emission: eGFP: 485 nm/510 nm; mCherry: 585 nm/610 nm; mOrange: 545 nm/567 nm). pIC50 values were calculated by a custom program written by Judit Sessler in C#. IC50 values and standard deviation were calculated from average pIC50 values from at least 3 independent measurements. Since the IC50 values were obtained through nonlinear regression fitting of the viability vs. log(concentration) data, the resulting confidence intervals are inherently asymmetric (see pIC50 values and their corresponding SD in Tables S5 and S6).

[2] = tested on: MES-SA/B1-mOrange; assay: fluorescent triple coculture cytotoxicity assay; type: cell-based, human; conditions: 384-well plate; for SR (MES-SA/B1): selectivity ratio versus parental MES-SA
Description: as §1, §2, §3, §4

[3] = tested on: MES-SA/Dx5-eGFP; assay: fluorescent triple coculture cytotoxicity assay; type: cell-based, human; conditions: 384-well plate; for SR (MES-SA/Dx5): selectivity ratio versus parental MES-SA
Description: as §1, §2, §3, §4

[4] = tested on: T47D; assay: PrestoBlue cytotoxicity assay; type: cell-based; conditions: for pIC50 (mean): Table S5
Experimental: as §3
(§5) Cytotoxicity of the nonfluorescent cancer cells (MDA-MB-231, MCF-7, T-47D) were assessed with PrestoBlue cell viability reagent (Thermo Fisher). Briefly, 2500 cells/well were seeded on 384-well plates, and then the next day drugs were added. After 72 h incubation, PrestoBlue was added in a 10% final concentration, and after an hour of additional incubation, plates were measured with a PerkinElmer EnSpire plate reader at 555 nm/585 nm excitation/emission wavelengths. Fluorescent cells (MES-SA mCherry, MES-SA/B1 mOrange, MES-SA/Dx5 eGFP) were admixed before seeding on 384-well plates at 800 cells/well density each, thus altogether 2400 cells/well. Drugs were added the following day, and the intensity of the fluorescent proteins were measured after 144 h incubation at the respective fluorescent channels (excitation/emission: eGFP: 485 nm/510 nm; mCherry: 585 nm/610 nm; mOrange: 545 nm/567 nm). pIC50 values were calculated by a custom program written by Judit Sessler in C#. IC50 values and standard deviation were calculated from average pIC50 values from at least 3 independent measurements. Since the IC50 values were obtained through nonlinear regression fitting of the viability vs. log(concentration) data, the resulting confidence intervals are inherently asymmetric (see pIC50 values and their corresponding SD in Tables S5 and S6).

[5] = tested on: MDA-MB-231; assay: PrestoBlue cytotoxicity assay; type: cell-based; conditions: for pIC50 (mean): Table S5
Experimental: as §3, §5

[6] = tested on: MCF-7; assay: PrestoBlue cytotoxicity assay; type: cell-based; conditions: for pIC50 (mean): Table S5
Experimental: as §3, §5

[7] = n-octanol/water distribution coefficient, shake-flask; type: physicochemical; conditions: n-octanol/20 mM phosphate buffer, pH = 7.4, t = 25 °C; for logD at 4 h: n-octanol/buffered aqueous solution
Description: The bioactive compounds must cross the cell membrane, which is influenced by their lipophilicity. Therefore, we characterized the lipophilicity of the complexes using n-octanol–water partitioning at three different chloride ion concentrations at pH 7.4. As the H2O/Cl^– exchange alters the charge of the complexes, it consequently affects their lipophilicity. The ratio of chlorido and aqua complexes depends on the actual Cl^– concentration and the chloride affinity of the complex. Chloride ion concentrations were chosen to mimic physiological conditions, specifically those found in blood (100 mM), cytosol (24 mM), and the nucleus (4 mM).
The traditional shake-flask method was used to obtain distribution coefficients of the ligands as well as of the complexes in n-octanol/buffered aqueous solution (20 mM phosphate, pH = 7.4) at different chloride ion concentrations (4, 24, and 100 mM) using UV–vis spectrophotometry (Agilent Cary 8454 diode array spectrophotometer) for the analysis. The compounds were dissolved in buffered aqueous solutions previously saturated with n-octanol. Then the aqueous and n-octanol phases were gently mixed in different volume ratios (using 1:60 for the ligands, 1:10 for the RhCp* and the RuCym complexes ratios of n-octanol to buffered aqueous solution volume) for 4 h, followed by phase separation. Then the UV–vis spectrum of the original aqueous sample and the aqueous and n-octanol phases was recorded and distribution coefficients (D) were calculated according to the formula described in our former work in detail.

[8] = Homo sapiens, MES-SA, 144 h, MES-SA mCherry, coculture, 144 h, read-out: IC50
[9] = Homo sapiens, MES-SA, Mes-Sa mCherry, Table S6, read-out: pIC50 (mean) (converted)
[10] = Homo sapiens, MES-SA/B1-mOrange, coculture, 144 h, read-out: IC50
[11] = Homo sapiens, Mes-Sa/B1 mOrange, Table S6, read-out: pIC50 (mean) (converted)
[12] = Homo sapiens, MES-SA/Dx5-eGFP, coculture, 144 h, read-out: IC50
[13] = Homo sapiens, Mes-Sa/Dx5 eGFP, Table S6, read-out: pIC50 (mean) (converted)
[14] = Homo sapiens, 72 h, 384-well plate, read-out: IC50
[15] = Homo sapiens, Table S5, read-out: pIC50 (mean) (converted)
[16] = Homo sapiens, MCF7, 72 h, 384-well plate, read-out: IC50
[17] = Homo sapiens, MCF7, Table S5, read-out: pIC50 (mean) (converted)
[18] = MES-SA mCherry, coculture, 144 h, read-out: IC50
[19] = MES-SA/B1-mOrange, coculture, 144 h, read-out: IC50
[20] = MES-SA/Dx5-eGFP, coculture, 144 h, read-out: IC50
[21] = 72 h, 384-well plate, read-out: IC50

Compound: c1ccc(-c2ccnc3c2ccc2c(-c4ccccc4)ccnc23)cc1 [BP, 4,7-diphenyl-1,10-phenanthroline]
- IC50 [1, 8]: 0.47 µM
- IC50 [1, 9]: 0.468 µM
- IC50 [2, 10]: 0.14 µM
- IC50 [2, 11]: 0.138 µM
- SR (MES-SA/B1) [2]: 3.4
- IC50 [3, 12]: 0.01 µM
- IC50 [3, 13]: 0.00851 µM
- SR (MES-SA/Dx5) [3]: 54.7
- IC50 [4, 14]: 0.63 µM
- IC50 [4, 15]: 0.631 µM
- IC50 [5, 14]: 0.76 µM
- IC50 [5, 15]: 0.759 µM
- IC50 [6, 16]: 0.59 µM
- IC50 [6, 17]: 0.589 µM
- logD at 4 h ([7]; c(Cl–) = 100 mM): 3.69

Compound: Clc1ccnc2c1ccc1c(Cl)ccnc12 [DCP, 4,7-dichloro-1,10-phenanthroline]
- IC50 [1, 8]: 3.1 µM
- IC50 [1, 9]: 3.02 µM
- IC50 [1, 18]: 3.05 µM
- IC50 [2, 10]: 4.9 µM
- IC50 [2, 11]: 4.9 µM
- SR (MES-SA/B1) [2]: 0.6
- IC50 [3, 12]: 0.48 µM
- IC50 [3, 13]: 0.49 µM
- SR (MES-SA/Dx5) [3]: 6.3
- IC50 [4, 14]: 4.29 µM
- IC50 [4, 15]: 4.27 µM
- IC50 [5, 14]: 5.09 µM
- IC50 [5, 15]: 5.13 µM
- IC50 [6, 16]: 3.84 µM
- IC50 [6, 17]: 3.8 µM
- logD at 4 h ([7]; c(Cl–) = 100 mM): 2.4

Compound: Cc1c(C)c(C)[c-](C)c1C.Clc1ccnc2c1ccc1c(Cl)ccnc12.[Cl-].[Cl-].[Rh+3] [RhCp*DCP, [Rh(III)(η^5-C5Me5)(4,7-dichloro-1,10-phenanthroline)Cl]Cl]
- IC50 ([1]; MES-SA mCherry, coculture, 144 h, listed as [RhCp*(DCP)Cl]Cl, read-out: IC50): 4.2 µM and 4.22 µM
- pIC50 (mean) ([1]; Mes-Sa mCherry, Table S6): 5.38
- IC50 [2, 19]: 6.38 µM
- pIC50 (mean) ([2]; Mes-Sa/B1 mOrange, Table S6): 5.20
- SR (MES-SA/B1) [2]: 0.7
- IC50 [3, 20]: 0.75 µM
- pIC50 (mean) ([3]; Mes-Sa/Dx5 eGFP, Table S6): 6.12
- SR (MES-SA/Dx5) [3]: 5.6
- IC50 [4, 21]: 7.36 µM
- pIC50 (mean) [4]: 5.13
- IC50 [5, 21]: 7.56 µM
- pIC50 (mean) [5]: 5.12
- IC50 [6, 21]: 5.92 µM
- pIC50 (mean) [6]: 5.23
- logD ([7]; c(Cl–) = 4 mM): –1.03 ± 0.03
- logD ([7]; c(Cl–) = 24 mM): –0.59 ± 0.02
- logD ([7]; c(Cl–) = 100 mM): –0.38 ± 0.02

Compound: Cc1ccc(C(C)C)cc1.[Cl-].[Cl-].[Ru+2].c1ccc(-c2ccnc3c2ccc2c(-c4ccccc4)ccnc23)cc1 [RuCymBP, [Ru(II)(η^6-p-cymene)(bathophenanthroline)Cl]Cl]
- IC50 [1, 18]: 0.53 µM
- pIC50 (mean) ([1]; Mes-Sa mCherry, Table S6): 6.28
- IC50 [2, 19]: 55 µM
- pIC50 (mean) ([2]; Mes-Sa/B1 mOrange, Table S6): 4.26
- SR (MES-SA/B1) [2]: 0.01
- IC50 [3, 20]: 41 µM
- pIC50 (mean) ([3]; Mes-Sa/Dx5 eGFP, Table S6): 4.39
- SR (MES-SA/Dx5) [3]: 0.01
- IC50 [4, 21]: 1.86 µM
- pIC50 (mean) [4]: 5.73
- IC50 [5, 21]: 1.23 µM
- pIC50 (mean) [5]: 5.91
- IC50 [6, 21]: 1.93 µM
- pIC50 (mean) [6]: 5.71
- logD ([7]; c(Cl–) = 4 mM): +1.46 ± 0.02
- logD ([7]; c(Cl–) = 24 mM): +1.97 ± 0.02
- logD ([7]; c(Cl–) = 100 mM): +2.48 ± 0.02

Compound: Cc1ccc(C(C)C)cc1.Clc1ccnc2c1ccc1c(Cl)ccnc12.[Cl-].[Cl-].[Ru+2] [RuCymDCP, [Ru(II)(η^6-p-cymene)(4,7-dichloro-1,10-phenanthroline)Cl]Cl]
- IC50 [1, 18]: 65.6 µM
- pIC50 (mean) ([1]; Mes-Sa mCherry, Table S6): 4.18
- IC50 [2, 19]: > 100 µM
- IC50 [3, 20]: > 100 µM
- IC50 [4, 21]: 75 µM
- pIC50 (mean) [4]: 4.13
- IC50 [5, 21]: > 100 µM
- IC50 [6, 21]: 76.4 µM
- pIC50 (mean) [6]: 4.12
- logD ([7]; c(Cl–) = 4 mM): –0.55 ± 0.04
- logD ([7]; c(Cl–) = 24 mM): +0.04 ± 0.12
- logD ([7]; c(Cl–) = 100 mM): +0.35 ± 0.12

From article PMC12308784, “Organometallic Half-Sandwich Complexes of 1,10-Phenanthroline Derivatives with Improved Solubility, Albumin-Binding, and Nanoformulation Potential Targeting Drug Resistance in Cancer” (Inorganic Chemistry, 2025)
